Experimental data reported in US20150219624A1, “METHODS FOR IDENTIFYING ANTI-CANCER COMPOUNDS” (MEMORIAL SLOAN KETTERING CANCER CENTER, priority 2013, published 2015).

Key:
[1] = tested on: cap-dependent translation; assay: Dual-luciferase reporter assay (capped vs IRES-driven luciferase); type: cell-based; conditions: renilla and firefly luciferase either capped or under control of an IRES element
Description: Luciferase assays. Four tandem repeats of the (CGG)4 12-mer motif (GQs) or random sequence matched for length and GC content (random) were cloned into the 5′UTR of Renilla luciferase plasmid pGL4.73. Empty firefly luciferase plasmid pGL4.13 or HCV-IRES firefly were used as internal controls. Luciferase assays were performed using Dual-Luciferase Reporter Assay System (Promega E1960) following the manufacturer's instructions. GQs sequence: […]

KOPTK1 cells = assay: Metabolic labeling of nascent protein with L-azidohomoalanine (AHA); type: cell-based, human; conditions: 100 nM; p vs. vehicle 2×10−4
Description: (Non-radioactive) Metabolic labeling of nascent protein. KOPTK1 cells were labeled for nascent protein synthesis using Click-iTR AHA (L-azidohomoalanine) metabolic labeling reagent obtained from Invitrogen (cat no. C10102) as per manufacturer's instructions. Briefly, following silvestrol, Cycloheximide or DMSO treated cells were incubated in methionine free medium for 30 min prior to AHA labeling for 1 hr. Cells were fixed with 4% paraformaldehyde in PBS for 15 min, permeablized with 0.25% Triton X-100 in PBS for 15 min followed by one wash with 3% BSA. Cells were then stained using Alexa Fluor 488 Alkyne (Invitrogen cat no. A10267) with Click-iT Cell reaction Buffer Kit (Invitrogen cat no. C10269). Changes in mean fluorescence intensity as a measure of newly synthesized protein was detected by Flow cytometry analysis.
The number of ribosomes occupying a given transcript is given as gene specific RF reads per one million total reads (RPM).
FIG. 10 depicts ribosome profiling quality control data and effects on translation. A and B) Read counts by length of mapped sequence before and after filtering rRNA, linker reads, non-coding RNAs, short mapped sequences (“noisy” reads; see text and method for details). C and D) Read length frequency histograms and mapping analysis of ribosome footprint data after quality control filtering for vehicle treated cells (C) or silvestrol treated cells (D). […]

SMILES | block of cap-dependent versus IRES-dependent translation [1] | max. reduction of nascent protein synthesis (AHA labeling) (KOPTK1 cells)
C[C@H]1C[C@@]2(O[C@H]3C[C@H]4[C@@H]5CC[C@H]6C[C@H](O)CC[C@]6(C)[C@H]5[C@@H](O)C[C@]4(C)[C@H]3[C@@]2(C)O)OC1(C)C [hippuristanol] | preferentially block cap-dependent over IRES-dependent translation | –
CC(/C=C/C(C)=C/[C@@H]1Cc2nc(cs2)[C@@H](C)C[C@@H](N)CC(=O)O[C@@H](C)C/C(C)=C/C=C\C(=O)O1)=C\CN(C)C [pateamine A, (3S,6Z,8E,11S,15R,17S)-15-amino-3-[(1E,3E,5E)-7-(dimethylamino)-2,5-dimethylhepta-1,3,5-trienyl]-9,11,17-trimethyl-4,12-dioxa-20-thia-21-azabicyclo[16.2.1]henicosa-1(21),6,8,18-tetraene-5,13-dione] | preferentially block cap-dependent over IRES-dependent translation | –
C[C@@H]1C[C@@H]([C@H](O)CC2CC(=O)NC(=O)C2)C(=O)[C@@H](C)C1 [cycloheximide, Cycloheximide] | – | 80%
